Measurements: ChEMBL document CHEMBL2331378, “Synthesis and discovery of novel piperidone-grafted mono- and bis-spirooxindole-hexahydropyrrolizines as potent cholinesterase inhibitors” (Bioorg Med Chem, 2013)

Experiments:
Cholinesterase = Cholinesterase (Equus caballus, UniProt P81908); test: Inhibition of equine serum BuChE using S-butyrylthiocholine chloride substrate by Ellman's method based spectrophotometry
[1] = Selectivity index, ratio of IC50 for AChE (unknown origin) to IC50 for equine serum BuChE
[2] = Selectivity index, ratio of IC50 for equine serum BuChE to IC50 for AChE (unknown origin)
Acetylcholinesterase = Acetylcholinesterase (Homo sapiens, UniProt P22303); test: Inhibition of AChE (unknown origin) using acetylthiocholine iodide substrate by Ellman's method based spectrophotometry
Acetylcholinesterase, sequence (P22303 whole entry): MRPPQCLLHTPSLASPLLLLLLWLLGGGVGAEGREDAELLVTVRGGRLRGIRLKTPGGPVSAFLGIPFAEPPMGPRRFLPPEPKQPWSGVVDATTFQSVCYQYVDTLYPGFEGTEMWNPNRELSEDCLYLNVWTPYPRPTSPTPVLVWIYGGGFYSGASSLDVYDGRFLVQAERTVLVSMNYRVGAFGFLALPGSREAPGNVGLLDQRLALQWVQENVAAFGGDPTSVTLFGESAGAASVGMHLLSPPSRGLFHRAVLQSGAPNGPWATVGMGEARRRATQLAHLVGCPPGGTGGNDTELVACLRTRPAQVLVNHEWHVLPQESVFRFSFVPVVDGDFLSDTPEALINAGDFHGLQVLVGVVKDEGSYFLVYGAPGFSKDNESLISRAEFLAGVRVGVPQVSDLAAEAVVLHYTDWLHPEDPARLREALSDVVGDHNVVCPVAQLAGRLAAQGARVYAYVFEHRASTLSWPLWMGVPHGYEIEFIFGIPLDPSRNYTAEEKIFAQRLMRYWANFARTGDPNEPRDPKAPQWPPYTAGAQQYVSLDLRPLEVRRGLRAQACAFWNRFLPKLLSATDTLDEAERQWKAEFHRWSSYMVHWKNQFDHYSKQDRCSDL

Cholinesterase, sequence (P81908 whole entry): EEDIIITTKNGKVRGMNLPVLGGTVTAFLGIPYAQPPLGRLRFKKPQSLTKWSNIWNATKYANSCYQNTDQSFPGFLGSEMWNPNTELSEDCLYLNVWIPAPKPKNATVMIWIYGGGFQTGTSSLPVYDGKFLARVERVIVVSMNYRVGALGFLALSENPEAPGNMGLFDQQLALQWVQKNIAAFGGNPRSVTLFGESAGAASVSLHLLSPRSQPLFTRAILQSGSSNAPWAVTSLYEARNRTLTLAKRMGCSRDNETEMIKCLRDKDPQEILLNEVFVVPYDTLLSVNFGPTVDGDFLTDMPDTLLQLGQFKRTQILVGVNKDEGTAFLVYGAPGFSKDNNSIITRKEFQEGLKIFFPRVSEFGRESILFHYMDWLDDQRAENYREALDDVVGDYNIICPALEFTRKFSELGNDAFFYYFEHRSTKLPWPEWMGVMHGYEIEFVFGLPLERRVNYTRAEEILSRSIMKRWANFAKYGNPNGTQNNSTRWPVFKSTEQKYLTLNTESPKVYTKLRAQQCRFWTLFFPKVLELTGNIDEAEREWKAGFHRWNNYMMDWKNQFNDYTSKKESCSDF

C=CC(=O)N1C/C(=C\c2ccc(Cl)cc2)C(=O)/C(=C/c2ccc(Cl)cc2)C1
IC50 (Cholinesterase): 38.2 µM
Ratio IC50 [1]: 0.58
Ratio IC50 [2]: 1.73
IC50 (Acetylcholinesterase): 22 µM

C=CC(=O)N1C/C(=C\c2ccccc2)C(=O)/C(=C/c2ccccc2)C1
IC50 (Cholinesterase): 22.1 µM
Ratio IC50 [1]: 0.8
Ratio IC50 [2]: 1.25
IC50 (Acetylcholinesterase): 17.7 µM

C=CC(=O)N1C/C(=C\c2ccccc2Cl)C(=O)/C(=C/c2ccccc2Cl)C1
IC50 (Cholinesterase): 36.6 µM
Ratio IC50 [1]: 0.45
Ratio IC50 [2]: 2.24
IC50 (Acetylcholinesterase): 16.3 µM

C=CC(=O)N1C/C(=C\c2ccccc2F)C(=O)/C(=C/c2ccccc2F)C1
IC50 (Cholinesterase): 54 µM
Ratio IC50 [1]: 0.22
Ratio IC50 [2]: 4.58
IC50 (Acetylcholinesterase): 11.8 µM

C=CC(=O)N1C/C(=C\c2cccc([N+](=O)[O-])c2)C(=O)/C(=C/c2cccc([N+](=O)[O-])c2)C1
IC50 (Cholinesterase): 51.2 µM
Ratio IC50 [1]: 0.19
Ratio IC50 [2]: 5.24
IC50 (Acetylcholinesterase): 9.76 µM

C=CC(=O)N1C/C(=C\c2ccccc2C)C(=O)/C(=C/c2ccccc2C)C1
IC50 (Cholinesterase): 30 µM
Ratio IC50 [1]: 0.58
Ratio IC50 [2]: 1.73
IC50 (Acetylcholinesterase): 17.4 µM

C=CC(=O)N1C/C(=C\c2ccccc2OC)C(=O)/C(=C/c2ccccc2OC)C1
IC50 (Cholinesterase): 28.9 µM
Ratio IC50 [1]: 0.3
Ratio IC50 [2]: 3.32
IC50 (Acetylcholinesterase): 8.72 µM

C=CC(=O)N1C/C(=C\c2ccc(Cl)cc2Cl)C(=O)/C(=C/c2ccc(Cl)cc2Cl)C1
IC50 (Cholinesterase): 29.4 µM
Ratio IC50 [1]: 0.54
Ratio IC50 [2]: 1.86
IC50 (Acetylcholinesterase): 15.8 µM

C=CC(=O)N1C/C(=C\c2cccc3ccccc23)C(=O)/C(=C/c2cccc3ccccc23)C1
IC50 (Cholinesterase): 23.1 µM
Ratio IC50 [1]: 0.6
Ratio IC50 [2]: 1.67
IC50 (Acetylcholinesterase): 13.8 µM

C=CC(=O)N1C/C(=C\c2ccc(F)cc2)C(=O)/C(=C/c2ccc(F)cc2)C1
IC50 (Cholinesterase): 30.6 µM
Ratio IC50 [1]: 0.49
Ratio IC50 [2]: 2.02
IC50 (Acetylcholinesterase): 15.1 µM

C=CC(=O)N1C/C(=C\c2ccc(C)cc2)C(=O)/C(=C/c2ccc(C)cc2)C1
IC50 (Cholinesterase): 35.1 µM
Ratio IC50 [1]: 0.51
Ratio IC50 [2]: 1.94
IC50 (Acetylcholinesterase): 18.1 µM

Cc1ccc(/C=C2\CN(C(=O)C[C@H]3C[C@H]4CCCN4[C@]34C(=O)Nc3ccccc34)C[C@@]3(C[C@H]4CCCN4[C@@]34C(=O)Nc3ccccc34)C2=O)cc1 (racemic)
IC50 (Cholinesterase): 17.9 µM
Ratio IC50 [1]: 1.1
Ratio IC50 [2]: 0.91
IC50 (Acetylcholinesterase): 19.6 µM

O=C(C[C@H]1C[C@H]2CCCN2[C@]12C(=O)Nc1ccccc12)N1C/C(=C\c2ccc(Cl)cc2Cl)C(=O)[C@]2(C[C@H]3CCCN3[C@@]23C(=O)Nc2ccccc23)C1 (racemic)
IC50 (Cholinesterase): 9.45 µM
Ratio IC50 [1]: 0.74
Ratio IC50 [2]: 1.36
IC50 (Acetylcholinesterase): 6.96 µM

O=C(C[C@H]1C[C@H]2CCCN2[C@]12C(=O)Nc1ccccc12)N1C/C(=C\c2cccc([N+](=O)[O-])c2)C(=O)[C@]2(C[C@H]3CCCN3[C@@]23C(=O)Nc2ccccc23)C1 (racemic)
IC50 (Cholinesterase): 24.3 µM
Ratio IC50 [1]: 1.1
Ratio IC50 [2]: 0.91
IC50 (Acetylcholinesterase): 26.6 µM

O=C(C[C@H]1C[C@H]2CCCN2[C@]12C(=O)Nc1ccccc12)N1C/C(=C\c2ccccc2F)C(=O)[C@]2(C[C@H]3CCCN3[C@@]23C(=O)Nc2ccccc23)C1 (racemic)
IC50 (Cholinesterase): 9.09 µM
Ratio IC50 [1]: 2.7
Ratio IC50 [2]: 0.37
IC50 (Acetylcholinesterase): 24.6 µM

O=C(C[C@H]1C[C@H]2CCCN2[C@]12C(=O)Nc1ccccc12)N1C/C(=C\c2ccccc2Cl)C(=O)[C@]2(C[C@H]3CCCN3[C@@]23C(=O)Nc2ccccc23)C1 (racemic)
IC50 (Cholinesterase): 11.7 µM
Ratio IC50 [1]: 1.16
Ratio IC50 [2]: 0.86
IC50 (Acetylcholinesterase): 13.6 µM

O=C(C[C@H]1C[C@H]2CCCN2[C@]12C(=O)Nc1ccccc12)N1C/C(=C\c2ccc(F)cc2)C(=O)[C@]2(C[C@H]3CCCN3[C@@]23C(=O)Nc2ccccc23)C1 (racemic)
IC50 (Cholinesterase): 8.29 µM
Ratio IC50 [1]: 2.86
Ratio IC50 [2]: 0.35
IC50 (Acetylcholinesterase): 23.7 µM

O=C(C[C@H]1C[C@H]2CCCN2[C@]12C(=O)Nc1ccccc12)N1C/C(=C\c2ccc(Cl)cc2)C(=O)[C@]2(C[C@H]3CCCN3[C@@]23C(=O)Nc2ccccc23)C1 (racemic)
IC50 (Cholinesterase): 10.9 µM
Ratio IC50 [1]: 0.73
Ratio IC50 [2]: 1.38
IC50 (Acetylcholinesterase): 7.92 µM

COc1ccccc1/C=C1\CN(C(=O)C[C@H]2C[C@H]3CCCN3[C@]23C(=O)Nc2ccccc23)C[C@@]2(C[C@H]3CCCN3[C@@]23C(=O)Nc2ccccc23)C1=O (racemic)
IC50 (Cholinesterase): 19.2 µM
Ratio IC50 [1]: 0.59
Ratio IC50 [2]: 1.68
IC50 (Acetylcholinesterase): 11.4 µM

Cc1ccccc1/C=C1\CN(C(=O)C[C@H]2C[C@H]3CCCN3[C@]23C(=O)Nc2ccccc23)C[C@@]2(C[C@H]3CCCN3[C@@]23C(=O)Nc2ccccc23)C1=O (racemic)
IC50 (Cholinesterase): 13 µM
Ratio IC50 [1]: 2.12
Ratio IC50 [2]: 0.47
IC50 (Acetylcholinesterase): 27.5 µM

O=C(C[C@H]1C[C@H]2CCCN2[C@]12C(=O)Nc1ccccc12)N1C/C(=C\c2ccccc2)C(=O)[C@]2(C[C@H]3CCCN3[C@@]23C(=O)Nc2ccccc23)C1 (racemic)
IC50 (Cholinesterase): 18.2 µM
Ratio IC50 [1]: 1.08
Ratio IC50 [2]: 0.93
IC50 (Acetylcholinesterase): 19.7 µM

O=C1/C(=C/c2cccc3ccccc23)CN(C(=O)C[C@H]2C[C@H]3CCCN3[C@]23C(=O)Nc2ccccc23)C/C1=C\c1cccc2ccccc12 (racemic)
IC50 (Cholinesterase): 11.8 µM
Ratio IC50 [1]: 0.57
Ratio IC50 [2]: 1.74
IC50 (Acetylcholinesterase): 6.76 µM

O=C1/C(=C/c2ccccc2)CN(C(=O)C[C@H]2C[C@H]3CCCN3[C@]23C(=O)Nc2ccccc23)C/C1=C\c1ccccc1 (racemic)
IC50 (Cholinesterase): 16.3 µM
Ratio IC50 [1]: 1.07
Ratio IC50 [2]: 0.93
IC50 (Acetylcholinesterase): 17.5 µM

Cc1ccccc1/C=C1\CN(C(=O)C[C@H]2C[C@H]3CCCN3[C@]23C(=O)Nc2ccccc23)C/C(=C\c2ccccc2C)C1=O (racemic)
IC50 (Cholinesterase): 17.8 µM
Ratio IC50 [1]: 0.7
Ratio IC50 [2]: 1.43
IC50 (Acetylcholinesterase): 12.5 µM

COc1ccccc1/C=C1\CN(C(=O)C[C@H]2C[C@H]3CCCN3[C@]23C(=O)Nc2ccccc23)C/C(=C\c2ccccc2OC)C1=O (racemic)
IC50 (Cholinesterase): 9.41 µM
Ratio IC50 [1]: 1.69
Ratio IC50 [2]: 0.59
IC50 (Acetylcholinesterase): 15.9 µM

O=C1/C(=C/c2ccccc2Cl)CN(C(=O)C[C@H]2C[C@H]3CCCN3[C@]23C(=O)Nc2ccccc23)C/C1=C\c1ccccc1Cl (racemic)
IC50 (Cholinesterase): 19.7 µM
Ratio IC50 [1]: 0.6
Ratio IC50 [2]: 1.66
IC50 (Acetylcholinesterase): 11.9 µM

O=C1/C(=C/c2ccccc2F)CN(C(=O)C[C@H]2C[C@H]3CCCN3[C@]23C(=O)Nc2ccccc23)C/C1=C\c1ccccc1F (racemic)
IC50 (Cholinesterase): 3.5 µM
Ratio IC50 [1]: 9.82
Ratio IC50 [2]: 0.1
IC50 (Acetylcholinesterase): 34.4 µM

O=C1/C(=C/c2cccc([N+](=O)[O-])c2)CN(C(=O)C[C@H]2C[C@H]3CCCN3[C@]23C(=O)Nc2ccccc23)C/C1=C\c1cccc([N+](=O)[O-])c1 (racemic)
IC50 (Cholinesterase): 18.1 µM
Ratio IC50 [1]: 0.33
Ratio IC50 [2]: 3.03
IC50 (Acetylcholinesterase): 5.99 µM

O=C1/C(=C/c2ccc(Cl)cc2Cl)CN(C(=O)C[C@H]2C[C@H]3CCCN3[C@]23C(=O)Nc2ccccc23)C/C1=C\c1ccc(Cl)cc1Cl (racemic)
IC50 (Cholinesterase): 21.2 µM
Ratio IC50 [1]: 0.19
Ratio IC50 [2]: 5.15
IC50 (Acetylcholinesterase): 4.11 µM

Cc1ccc(/C=C2\CN(C(=O)C[C@H]3C[C@H]4CCCN4[C@]34C(=O)Nc3ccccc34)C/C(=C\c3ccc(C)cc3)C2=O)cc1 (racemic)
IC50 (Cholinesterase): 25.2 µM
Ratio IC50 [1]: 0.8
Ratio IC50 [2]: 1.26
IC50 (Acetylcholinesterase): 20.1 µM

O=C1/C(=C/c2ccc(Cl)cc2)CN(C(=O)C[C@H]2C[C@H]3CCCN3[C@]23C(=O)Nc2ccccc23)C/C1=C\c1ccc(Cl)cc1 (racemic)
IC50 (Cholinesterase): 32.3 µM
Ratio IC50 [1]: 0.1
Ratio IC50 [2]: 9.6
IC50 (Acetylcholinesterase): 3.36 µM

O=C1/C(=C/c2ccc(F)cc2)CN(C(=O)C[C@H]2C[C@H]3CCCN3[C@]23C(=O)Nc2ccccc23)C/C1=C\c1ccc(F)cc1 (racemic)
IC50 (Cholinesterase): 3.99 µM
Ratio IC50 [1]: 4.97
Ratio IC50 [2]: 0.2
IC50 (Acetylcholinesterase): 19.8 µM

O=C(C[C@H]1C[C@H]2CCCN2[C@]12C(=O)Nc1ccccc12)N1C/C(=C\c2cccc3ccccc23)C(=O)[C@]2(C[C@H]3CCCN3[C@@]23C(=O)Nc2ccccc23)C1 (racemic)
IC50 (Cholinesterase): 6.42 µM
Ratio IC50 [1]: 3.21
Ratio IC50 [2]: 0.31
IC50 (Acetylcholinesterase): 20.6 µM
